Read-outs that look alike come from different tables or passages of the source.
Experiments:
FLT3(D835Y) = biological target: T1, FLT3(D835Y) (Homo sapiens, UniProt P36888, D835Y); format: binding
T1 construct: made in house
T1 sequence (P36888 27-993 D835Y): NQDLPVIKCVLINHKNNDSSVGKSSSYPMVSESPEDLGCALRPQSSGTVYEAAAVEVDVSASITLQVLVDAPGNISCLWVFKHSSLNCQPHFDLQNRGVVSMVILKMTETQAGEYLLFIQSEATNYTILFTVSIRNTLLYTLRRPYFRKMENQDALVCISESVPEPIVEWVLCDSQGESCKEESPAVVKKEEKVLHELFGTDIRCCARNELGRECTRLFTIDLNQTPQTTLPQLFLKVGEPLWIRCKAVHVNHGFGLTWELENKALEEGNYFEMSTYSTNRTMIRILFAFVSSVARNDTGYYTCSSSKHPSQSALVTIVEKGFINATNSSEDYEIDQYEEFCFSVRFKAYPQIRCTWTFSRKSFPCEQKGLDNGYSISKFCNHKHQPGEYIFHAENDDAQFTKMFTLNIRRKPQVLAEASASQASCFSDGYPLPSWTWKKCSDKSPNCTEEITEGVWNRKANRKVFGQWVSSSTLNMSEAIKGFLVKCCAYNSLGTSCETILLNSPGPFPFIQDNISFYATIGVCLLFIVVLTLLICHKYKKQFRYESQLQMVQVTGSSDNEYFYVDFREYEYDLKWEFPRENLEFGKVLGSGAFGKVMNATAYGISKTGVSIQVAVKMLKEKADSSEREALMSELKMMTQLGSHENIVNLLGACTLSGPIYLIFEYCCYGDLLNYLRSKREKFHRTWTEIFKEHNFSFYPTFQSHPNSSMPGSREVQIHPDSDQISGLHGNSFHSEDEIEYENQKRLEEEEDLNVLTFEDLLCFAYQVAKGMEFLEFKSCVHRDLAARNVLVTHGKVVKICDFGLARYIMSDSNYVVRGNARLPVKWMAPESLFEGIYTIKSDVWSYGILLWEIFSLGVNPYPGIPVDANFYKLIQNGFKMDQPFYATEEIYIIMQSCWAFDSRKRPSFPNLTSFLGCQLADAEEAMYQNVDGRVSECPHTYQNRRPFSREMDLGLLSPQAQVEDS
Protocol: Cannabis flavonoids and their analogs were subjected to kinase inhibition assay. The compounds were first screened at a single concentration of 10 μM in the primary assay. […] To determine the kd or IC50 values, competition binding assays were established, authenticated and executed as described previously. […] See also, Karaman et al., “A Quantitative Analysis Of Kinase Inhibitor Selectivity”, Nat. Biotechnol. […] For most assays, kinases were fused to T7 phage strains (Fabian, supra) and for the other assays, kinases were produced in HEK-293 cells after which they were tagged with DNA for quantitative PCR detection. In general, full-length constructs were used for small, single domain kinases, and catalytic domain constructs for large multi-domain kinases. […] The liganded beads were blocked with excess biotin and washed with blocking buffer (SeaBlock (Pierce), 1% BSA, 0.05% Tween 20, 1 mM DTT) to remove unbound ligand and to reduce non-specific phage binding. […] All reactions were performed in polypropylene 384-well plates in a final volume of 0.04 ml. […] The kinase concentration in the eluates was measured by quantitative PCR. An illustration of the kinase interaction process is presented below. Kd/IC50 values were determined using a standard dose response curve using the hill equation. Curves were fitted using a non-linear least square fit with the Levenberg-Marquardt algorithm.

[1] = system: MOLM-14 acute myeloid leukemia cell line; experiment: WST-1 anticancer cell proliferation assay, MOLM-14; format: cell-based; settings: Table 4; read-out: Acute Myeloid Leukemia cell lines MOLM-14 IC50
Protocol: (§1) Anticancer activity was tested against several standard cancer cell lines including brain, breast, Kaposi sarcoma, leukemia, lung, melanoma, tenosynovial giant cell tumor, ovarian, pancreatic, colon and prostate cancer. Cells were trypsinized and plated into 96 well plates in 50 μl of media and incubated overnight. The next day approximately 18 hours after plating, 50 μl of media containing the required flavonoid-based pharmaceutical composition was added per well. Cells were plated at a density so that 72 hours post drug addition, the cells will be in log phase (500)-2000 cells/well). The compounds and extracts were solubilized in Dimethyl sulfoxide (DMSO). The cells are allowed to proliferate for 72 hours 37° C. in humidified atmosphere of 5% CO2. The experiment is terminated using WST-1 (Roche®) 10 μl per well and absorbance is read at 450 nm %690 nm. The effect of drugs on growth is assessed as percent of cell viability. The IC50 values were determined from the extract dose versus control growth curves using Graphpad Prism® software. All experiments were carried out in duplicate and the mean results determined.

[2] = system: THP-1 acute myeloid leukemia cell line; experiment: WST-1 anticancer cell proliferation assay, THP-1; format: cell-based; settings: Table 4; read-out: Acute Myeloid Leukemia cell lines THP-1 IC50
Protocol: as §1

[3] = Table 1 kinase panel, read-out: IC50 (nM) FLT3(D835Y)
[4] = Table 4, read-out: Acute Myeloid Leukemia Kinases FLT3-D835Y IC50

| Structure (SMILES) | IC50 (FLT3(D835Y); [3]) | IC50 [1] | IC50 (FLT3(D835Y); [4]) | IC50 [2] |
| --- | --- | --- | --- | --- |
| COc1cc(-c2cc(=O)c3c(O)c(C/C=C(\C)CCC=C(C)C)c(O)cc3o2)ccc1O [FBL-03A] | > 20000 nM |  |  |  |
| COc1cc(-c2cc(=O)c3c(O)c(CC=C(C)C)c(O)cc3o2)ccc1O [FBL-03B] | 12.7 nM |  |  |  |
| COc1cc(-c2cc(=O)c3c(O)cc(O)c(C/C=C(\C)CCC=C(C)C)c3o2)ccc1O [FBL-03C] | > 20000 nM |  |  |  |
| COc1ccc(-c2cc(=O)c3c(O)c(C/C=C(\C)CCC=C(C)C)c(O)cc3o2)cc1OC [FBL-03D] | > 30000 nM |  |  |  |
| COc1cc(-c2cc(=O)c3c(O)cc(O)c(CC=C(C)C)c3o2)ccc1O [FBL-03G] | 45 nM |  |  |  |
| COc1ccc(C2CC(=O)c3c(O)cc(O)cc3O2)cc1O (stereo not shown) [FBLGS-74] |  | > 100 µM | 8580 nM | > 100 µM |
| O=c1cc(-c2ccccc2)oc2cc(O)cc(O)c12 [FBLGS-75] |  | 4.57 µM | 76 nM | > 100 µM |
| Cc1cc2oc(-c3cccc(N)c3)cc(=O)c2c([N+](=O)[O-])c1C [FBLGS-76] |  | 2.3 µM | 680 nM | > 100 µM |
| O=c1cc(-c2ccc(O)c(O)c2)oc2cc(O)cc(O)c12 [FBLGS-77] |  | 7.34 µM | 577 nM | > 100 µM |
| COc1cc(O)c2c(=O)c(O)c(-c3ccc(O)c(O)c3)oc2c1 [FBLGS-78] |  | 5.73 µM | 149 nM | > 100 µM |
| COc1cc(O)c2c(=O)c(O)c(-c3ccc(O)c(O)c3)oc2c1 [FBLGS-79] |  | 4.84 µM | 13 nM | > 100 µM |
| COc1cc(O)c2c(=O)c(O)c(-c3ccc(O)c(OC)c3)oc2c1 [FBLGS-80] |  | 6.12 µM | 27 nM | > 100 µM |
| COc1cc(-c2oc3cc(O)ccc3c(=O)c2O)ccc1O [FBLGS-81] |  | 0.7 µM | 0.9 nM | > 100 µM |
| O=C1CC(c2ccc(O)c(O)c2)Oc2cc(O)cc(O)c21 (stereo not shown) [FBLGS-82] |  | > 10 µM | 11000 nM | > 100 µM |
| O=c1c(O)c(-c2ccc(O)c(O)c2)oc2cc(O)ccc12 [FBLGS-83] |  | 2.35 µM | 82 nM | 13 µM |
| O=c1c(O)c(-c2ccc(O)c(O)c2)oc2cc(O)cc(O)c12 [FBLGS-84] |  | 7.42 µM | 194 nM |  |
| COc1cc(-c2cc(=O)c3c(O)c(OC)c(OC)cc3o2)ccc1O [FBLGS-85] |  | 1.5 µM | 22 nM | > 100 µM |
| COc1cc(-c2cc(=O)c3c(O)c(OC)c(O)cc3o2)ccc1O [FBLGS-86] |  | 3.1 µM | 43 nM | > 100 µM |
